Experiment in all cases: growth of human tumour cells (NCI), 48 h
Assay [1] concerns HT29 colon.
In assay [2] the test system is HCC-2998 colon.
The test system of assay [3] is CCRF-CEM leukemia.
The subject of assay [4] is SW-620 colon.
Assay [5] relates to IGROV1 ovarian.
Assay [6] has as its system K-562 leukemia.
The test system of assay [7] is SNB-75 CNS.
The test system of assay [8] is HOP-62 NSCLC.

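Cells were grown in 96-well plates and exposed to each compound for 48 hours at five concentrations; endpoints were interpolated linearly between bracketing concentrations, or set to the highest concentration if not reached. GI50 is the concentration that inhibits growth by half. TGI denotes the concentration required for complete inhibition of growth.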

Consider `COC(=O)[C@@H](C)C[C@H](Cc1cn(C)c2ccccc12)NC(=O)c1csc([C@@H](C[C@H](C(C)C)N(C)C(=O)[C@@H](NC(=O)[C@H]2CCCCN2C)C(C)C)OC(C)=O)n1`, for which the GI50 in assay [1] was 0.00632 µM; in assay [2], 0.0925 µM; in assay [3], 0.00779 µM; in assay [4], 0.0083 µM; in assay [5] it was 0.0289 µM; in assay [6], 0.00547 µM. In addition, the results for the GI50 in assay [7] and in assay [8] were 0.00887 µM and 0.0133 µM, respectively. In addition, the TGI in assay [1] is greater than 6.31 µM; in assay [2] it was greater than 16.7 µM; in assay [3] it was greater than 16.7 µM; in assay [4] it was greater than 16.7 µM; in assay [5], greater than 16.7 µM; in assay [6], greater than 16.7 µM. The TGI was greater than 14 µM in assay [7] and greater than 16.7 µM in assay [8].

For the molecule `COc1cc2nccc(Oc3ccc(NC(=O)NC4CC4)c(Cl)c3)c2cc1C(N)=O`, the GI50 was greater than 100 µM in assay [1]; greater than 100 µM in assay [2]; 62.6 µM in assay [3]; 97.5 µM in assay [4]; 30.6 µM in assay [5]; 3.63 µM in assay [6]. Moreover, the figures for the GI50 in assay [7] and in assay [8] were 2.82 µM and 21.4 µM, respectively. In addition, the TGI in assay [1], in assay [2], in assay [3], in assay [4], in assay [5] and in assay [6] was greater than 100 µM throughout. Further, the figures for the TGI in assay [7] and in assay [8] were 36.8 µM and 61.5 µM, respectively.

For `COc1ccc2sc3cccc(NCCN(C)C)c3c(=O)c2c1`, the GI50 in assay [1] was 2.03 µM; in assay [2], 1.83 µM; in assay [3], 2.43 µM; in assay [4], 2.07 µM; in assay [5] it was 3.35 µM; in assay [6] it was 2.37 µM. Besides, the GI50 in assay [7] is 2.9 µM; in assay [8], 3.57 µM. For the same molecule, the TGI in assay [1] stood at 4.6 µM; in assay [2] it was 3.39 µM; in assay [3] it was 8.39 µM; in assay [4], 5.57 µM; in assay [5], 11.6 µM; in assay [6], 5.2 µM. The TGI in assay [7] amounted to 12.8 µM; in assay [8] it was 10.7 µM.

Take `CSC1=Nc2c(c(C)c(-c3ccccc3)n2CCCN2CCCCC2)C2=NC(=O)C[C@H](C)N12`: the GI50 in assay [1] was 2.38 µM; in assay [2], 3.18 µM; in assay [3], 2.68 µM; in assay [4], 2.99 µM; in assay [5] it was 2.25 µM; in assay [6], 5.08 µM. Also, the GI50 in assay [7] is 4.98 µM; in assay [8] it was 3.11 µM. Also, the TGI is 10.9 µM in assay [1]; 12.7 µM in assay [2]; 10.2 µM in assay [3]; 18.2 µM in assay [4]; 13.5 µM in assay [5]; 87.6 µM in assay [6]. The TGI worked out at 32 µM in assay [7] and 15.8 µM in assay [8].

As for `CCCCCCCC/C=C/CCCCCCCC1=NC(C)(C)CN1CC(C)O` (centres undefined), the GI50 was 1.59 µM in assay [1]; 4.68 µM in assay [2]; 2.24 µM in assay [3]; 1.8 µM in assay [4]; 1.45 µM in assay [5]; 1.44 µM in assay [6]. Besides, the GI50 in assay [7] is 1.81 µM; in assay [8], 1.83 µM. The TGI in assay [1] amounted to 3.09 µM; in assay [2], 9.45 µM; in assay [3], 5.97 µM; in assay [4], 3.34 µM; in assay [5] it was 2.84 µM; in assay [6], 3.27 µM. Further, the TGI in assay [7] stood at 4.23 µM; in assay [8], 3.39 µM.

With `Cc1c(O)c2ccccc2oc1=O`, the TGI in assay [1], in assay [2], in assay [3], in assay [4], in assay [5] and in assay [6] was greater than 100 µM each time. Moreover, the TGI in assay [7] and in assay [8] was greater than 100 µM in each case.

`COc1c(O)c(OC)c2oc(-c3ccc(O)c(O)c3)c(OC)c(=O)c2c1O`: the TGI in assay [1] was greater than 100 µM; in assay [2] it was 98 µM; in assay [3], greater than 100 µM; in assay [4], greater than 100 µM; in assay [5], 25.7 µM; in assay [6], greater than 100 µM. Also, the TGI turned out to be 11.5 µM in assay [7] and 43.7 µM in assay [8].

In the case of `COc1ccc(N=Cc2c(O)ccc3c2oc2cc(Cl)c(O)c(Cl)c23)cc1`, the GI50 is 16.2 µM in assay [1]; 15 µM in assay [2]; 4.5 µM in assay [3]; 11.8 µM in assay [4]; 14.7 µM in assay [5]; 5.63 µM in assay [6]. In addition, the GI50 was 12.7 µM in assay [7] and 14.3 µM in assay [8]. Also, the TGI worked out at 37.8 µM in assay [1]; 29.3 µM in assay [2]; 31.8 µM in assay [3]; 25.9 µM in assay [4]; 43.3 µM in assay [5]; 49.7 µM in assay [6]. In addition, the TGI in assay [7] worked out at 48.8 µM; in assay [8], 33.5 µM.

Consider `CCOC(=O)c1ccc(Nc2sc(C(=O)c3ccc(Br)cc3)c(N)c2C#N)cc1`, for which the GI50 in assay [1] is 0.447 µM; in assay [2], greater than 100 µM; in assay [3] it was 1.43 µM; in assay [4] it was 0.584 µM; in assay [6], 0.513 µM; in assay [7] it was 0.496 µM. In assay [8], the GI50 is 1.56 µM. Besides, the TGI in assay [1], in assay [2], in assay [3], in assay [4], in assay [5] and in assay [6] was greater than 100 µM throughout. For the same molecule, the TGI in assay [7] was 7.61 µM; in assay [8] it was greater than 100 µM.

Consider `Cc1cccc(-c2[nH]ncc2-c2ccc3ncccc3n2)n1`, for which the GI50 was 12.1 µM in assay [1]; greater than 25 µM in assay [2]; 12.4 µM in assay [3]; 9.88 µM in assay [4]; 13 µM in assay [5]; greater than 25 µM in assay [6]. Further, the values for the GI50 in assay [7] and in assay [8] were 5.74 µM and 9.59 µM, respectively. Besides, the TGI in assay [1], in assay [2], in assay [3], in assay [4], in assay [5] and in assay [6] was greater than 25 µM each time. The results for the TGI in assay [7] and in assay [8] were greater than 23.9 µM and greater than 25 µM, respectively.

For `Nc1ccccc1NC(=O)c1ccc(CNc2nccc(-c3cccnc3)n2)cc1`, the GI50 in assay [1] is 0.364 µM; in assay [2], 0.785 µM; in assay [3] it was 0.742 µM; in assay [4] it was 0.518 µM; in assay [5], 2.36 µM; in assay [6], 0.358 µM. Besides, the GI50 is 1.43 µM in assay [7] and 1.34 µM in assay [8]. Moreover, the TGI is 6.28 µM in assay [1]; 2.59 µM in assay [2]; greater than 100 µM in assay [3]; greater than 100 µM in assay [4]; greater than 27.7 µM in assay [5]; greater than 100 µM in assay [6]. Moreover, the TGI in assay [7] was greater than 25.4 µM; in assay [8], greater than 51.8 µM.

In the case of `CN(C)c1ccc(/C=C/c2ccnc3c(O)cccc23)cc1`, the GI50 was 11.7 µM in assay [1]; 2.09 µM in assay [2]; 0.333 µM in assay [3]; 0.397 µM in assay [4]; 0.389 µM in assay [5]; 0.364 µM in assay [6]. For the same molecule, the GI50 in assay [7] is 0.372 µM; in assay [8] it was 0.469 µM. Further, the TGI in assay [1], in assay [2], in assay [3], in assay [4], in assay [5] and in assay [6] was greater than 100 µM each time. For the same molecule, the TGI in assay [7] is 36.6 µM; in assay [8] it was greater than 58.9 µM.

Consider `C=C(C)[C@@H]1CC[C@]2(COCCC#N)CC[C@]3(C)[C@H](CC[C@@H]4[C@@](C)(CCCNCCC#N)[C@H](C(=C)C)CC[C@]43C)[C@@H]12`, for which the GI50 in assay [1] was 7.88 µM; in assay [2], 9.08 µM; in assay [3], 10.8 µM; in assay [4], 11.5 µM; in assay [5] it was 13.1 µM; in assay [6], 8.94 µM. In addition, the GI50 was greater than 50 µM in assay [7] and 49.7 µM in assay [8]. Besides, the TGI in assay [1] is 19.8 µM; in assay [2], 20.1 µM; in assay [3], 38.5 µM; in assay [4], 31.2 µM; in assay [5], greater than 50 µM; in assay [6], 31.6 µM. The TGI in assay [7] and in assay [8] was greater than 50 µM each time.

For the molecule `Nc1cc(F)ccc1CC(=O)O`, the TGI in assay [1], in assay [2], in assay [3], in assay [4], in assay [5] and in assay [6] was greater than 100 µM in each case. Further, the TGI in assay [7] and in assay [8] was greater than 100 µM throughout.
